Measurements from patent publication US20080221086A1, “Novel Inhibitors of Glutaminyl Cyclase” (PROBIODRUG AG, priority 2006, published 2008).

Each molecule was assayed against hQC (Homo sapiens, UniProt Q16769) (assay: Fluorometric assay of glutaminyl cyclase (QC) inhibition, H-Gln-βNA or H-Gln-AMC substrate). Details: read-out: IC50.
Type: biochemical
Procedure, shortened: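 Ki values were obtained by fitting progress curves to a competitive-inhibition equation, and the rapid screen used 4 mM inhibitor with substrate at 1 KM. Both readouts coupled pyroglutamyl aminopeptidase at pH 8.0 and 30° C: H-Gln-βNA at 0.2 mM (ex/em 320/410 nm) or H-Gln-AMC (380/460 nm).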

hQC, sequence (Q16769 29-361): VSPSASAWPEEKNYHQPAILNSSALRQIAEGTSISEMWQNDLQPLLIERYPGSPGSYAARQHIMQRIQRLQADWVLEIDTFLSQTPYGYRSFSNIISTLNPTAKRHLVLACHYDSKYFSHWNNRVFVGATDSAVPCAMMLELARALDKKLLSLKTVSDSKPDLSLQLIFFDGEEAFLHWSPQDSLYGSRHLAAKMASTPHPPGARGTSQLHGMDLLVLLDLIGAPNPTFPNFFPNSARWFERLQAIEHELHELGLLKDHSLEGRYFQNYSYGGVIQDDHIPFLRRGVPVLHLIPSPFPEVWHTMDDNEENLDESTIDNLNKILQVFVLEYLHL

Structure (SMILES)	IC50 [nM]
Cc1cccc(C2/C(=N\Cn3nnc4ccccc43)NC(=S)N2c2ccc3nc[nH]c3c2)n1 (stereo not shown) [Compound 277, 1-(3H-Benzoimidazol-5-yl)-4-benzotriazol-1-ylmethylimino-5-(6-methyl-pyridin-2-yl)-imidazolidine-2-thione]	4000
S=C1N/C(=N\C2CCCc3ccccc32)C(c2ccccc2Cl)N1c1ccc2[nH]cnc2c1 (stereo not shown) [Compound 278, 1-(1H-Benzoimidazol-5-yl)-5-(2-chloro-phenyl)-4-1,2,3,4-tetrahydro-napthalen-1-ylimino-imidazolidine-2-thione]	6700
S=C1NC(=NCn2nnc3ccccc32)C(c2ccnc3ccccc23)N1c1ccc2nc[nH]c2c1 (stereo not shown) [Compound 279, 1-(3H-Benzoimidazol-5-yl)-4-benzotriazol-1-ylmethylimino-5-quinolin-4-yl-imidazolidine-2-thione]	2200
CN(C)c1ccc(C2/C(=N\Cn3nnc4ccccc43)NC(=S)N2c2ccc3[nH]cnc3c2)cc1 (stereo not shown) [Compound 280, 1-(1H-Benzoimidazol-5-yl)-4-benzotriazol-1-ylmethylimino-5-(4-dimethylamino-phenyl)-imidazolidine-2-thione]	1300
S=C1N/C(=N/CCCc2ccccc2)C(c2ccc3[nH]ccc3c2)N1c1ccc2[nH]cnc2c1 (stereo not shown) [Compound 284, 1-(1H-Benzoimidazol-5-yl)-5-(1H-indol-5-yl)-4-3-phenyl-propylimino-imidazolidine-2-thione]	1300
Cc1cccc(C2/C(=N\Cn3nnc4ccccc43)NC(=S)N2c2ccc3[nH]cnc3c2)c1 (stereo not shown) [Compound 285, 1-(1H-Benzoimidazol-5-yl)-4-benzotriazol-1-ylmethylimino-5-m-tolyl-imidazolidine-2-thione]	1300
CC(C)(C)CC(C)(C)/N=C1\CN(c2ccc3nc[nH]c3c2)C(=S)N1 [Compound 286, 1-(3H-Benzoimidazol-5-yl)-4-1,1,3,3-tetramethyl-butylimino-imidazolidine-2-thione]	5800
COC(=O)C(C)N=C1NC(=O)N(c2ccc3[nH]cnc3c2)C1c1c(F)cc(Cl)cc1F (stereo not shown) [Compound 290, Methyl 2-(1-(1H-benzo[d]imidazol-5-yl)-5-(4-chloro-2,6-difluorophenyl)-2-oxoimidazolidin-4-ylideneamino)propanoate]	400
S=C1NC(=Nc2ccccc2Br)C(c2ccc3[nH]ccc3c2)N1c1ccc2nc[nH]c2c1 (stereo not shown) [Compound 291, 1-(3H-Benzoimidazol-5-yl)-4-2-bromo-phenylimino-5-(1H-indol-5-yl)-imidazolidine-2-thione]	4000
CC1=CC(C)C(C2C(=NCC(=O)N3CCSCC3)NC(=O)N2c2ccc3[nH]cnc3c2)CC1 (stereo not shown) [Compound 294, 1-(1H-Benzoimidazol-5-yl)-5-(2,4-dimethyl-cyclohex-3-enyl)-4-2-oxo-2-thiomorpholin-4-yl-ethylimino-imidazolidin-2-one]	1300
CC(C)CC(C)N=C1NC(=O)N(c2ccc3[nH]cnc3c2)C1c1ccccc1C(F)(F)F (stereo not shown) [Compound 298, 1-(1H-Benzoimidazol-5-yl)-4-1,3-dimethyl-butylimino-5-(2-trifluoromethyl-phenyl)-imidazolidin-2-one]	6700
Cc1cccc(C2/C(=N/c3cc(Cl)ccc3Cl)NC(=S)N2c2ccc3[nH]cnc3c2)c1 (stereo not shown) [Compound 299, 1-(1H-Benzoimidazol-5-yl)-4-2,5-dichloro-phenylimino-5-m-tolyl-imidazolidine-2-thione]	7600
CC1=CC(C)C(C2/C(=N/c3ccccc3Br)NC(=S)N2c2ccc3[nH]cnc3c2)CC1 (stereo not shown) [Compound 300, 1-(1H-Benzoimidazol-5-yl)-4-2-bromo-phenylimino-5-(2,4-dimethyl-cyclohex-3-enyl)-imidazolidine-2-thione]	9400
COC(=O)C(C)N=C1NC(=S)N(c2ccc3[nH]cnc3c2)C1c1ccccc1 (stereo not shown) [Compound 304, Methyl 2-(1-(1H-benzo[d]imidazol-5-yl)-5-phenyl-2-thioxoimidazolidin-4-ylideneamino)propanoate]	7600
S=C1N/C(=N/Cn2nnc3ccccc32)C(c2ccc3ccccc3c2)N1c1ccc2[nH]cnc2c1 (stereo not shown) [Compound 309, 1-(1H-Benzoimidazol-5-yl)-4-benzotriazol-1-ylmethylimino-5-naphthalen-2-yl-imidazolidine-2-thione]	1300

Now from value to molecule:

IC50 [nM]	Structure (SMILES)
6700	O=C(CN=C1NC(=O)N(c2ccc3[nH]cnc3c2)C1c1ccc(Cl)c(F)c1)N1CCC(O)C1 (stereo not shown) [Compound 281, 1-(1H-Benzoimidazol-5-yl)-5-(4-chloro-3-fluoro-phenyl)-4-2-(3-hydroxy-pyrrolidin-1-yl)-2-oxo-ethylimino-imidazolidin-2-one]
4900	O=C(C/N=C1/NC(=O)N(c2ccc3[nH]cnc3c2)C1c1ccc2nsnc2c1)N1CCC(O)C1 (stereo not shown) [Compound 282, 1-(1H-Benzoimidazol-5-yl)-5-benzo[c][1,2,5]thiadiazol-5-yl-4-2-(3-hydroxy-pyrrolidin-1-yl)-2-oxo-ethylimino-imidazolidin-2-one]
400	Cc1ccc(C2/C(=N/C3CCCCCC3)NC(=O)N2c2ccc3nc[nH]c3c2)c(C)c1 (stereo not shown) [Compound 283, 1-(3H-Benzoimidazol-5-yl)-4-cycloheptylimino-5-(2,4-dimethyl-phenyl)-imidazolidin-2-one]
3100	CCc1ccccc1/N=C1\NC(=O)N(c2ccc3[nH]cnc3c2)C1c1ccc2c(c1)OCO2 (stereo not shown) [Compound 287, 5-Benzo1,3dioxol-5-yl-1-(1H-benzoimidazol-5-yl)-4-2-ethyl-phenylimino-imidazolidin-2-one]
7600	CCc1ccccc1/N=C1\NC(=S)N(c2ccc3nc[nH]c3c2)C1C1CCC(C)=CC1C (stereo not shown) [Compound 288, 1-(3H-Benzoimidazol-5-yl)-5-(2,4-dimethyl-cyclohex-3-enyl)-4-2-ethyl-phenylimino-imidazolidine-2-thione]
4	O=C1CCCN1CCC/N=C1/NC(=O)N(c2ccc3[nH]cnc3c2)C1c1ccc2[nH]ccc2c1 (stereo not shown) [Compound 289, 1-(1H-benzoimidazol-5-yl)-5-(1H-indol-5-yl)-4-3-(2-oxo-pyrrolidin-1-yl)-propylimino-imidazolidin-2-one]
1300	O=C1N/C(=N\c2ccc3c(c2)OCCO3)C(c2ccc3c(c2)OCO3)N1c1ccc2[nH]cnc2c1 (stereo not shown) [Compound 292, 5-Benzo1,3dioxol-5-yl-1-(1H-benzoimidazol-5-yl)-4-2,3-dihydro-benzo1,4dioxin-6-ylimino-imidazolidin-2-one]
5800	Cc1ccc(C2/C(=N/C(C)(C)CC(C)(C)C)NC(=O)N2c2ccc3nc[nH]c3c2)cc1 (stereo not shown) [Compound 293, 1-(3H-Benzoimidazol-5-yl)-4,1,1,3,3-tetramethyl-butylimino-5-p-tolyl-imidazolidin-2-one]
4900	O=C1N/C(=N/CCN2CCOCC2)C(c2cc(Br)cc(Br)c2)N1c1ccc2nc[nH]c2c1 (stereo not shown) [Compound 296, 1-(3H-Benzoimidazol-5-yl)-5-(3,5-dibromo-phenyl)-4-2-morpholin-4-yl-ethylimino-imidazolidin-2-one]
9400	O=C1N/C(=N\C2CCCCC2O)C(c2coc3ccccc3c2=O)N1c1ccc2[nH]cnc2c1 (stereo not shown) [Compound 297, 1-(1H-Benzoimidazol-5-yl)-4-2-hydroxy-cyclohexylimino-5-(4-oxo-4H-chromen-3-yl)-imidazolidin-2-one]
4	O=C1N/C(=N\C2CCCCCC2)C(c2cc(Br)cc(Br)c2)N1c1ccc2nc[nH]c2c1 (stereo not shown) [Compound 301, 1-(3H-Benzoimidazol-5-yl)-4-cycloheptylimino-5-(3,5-dibromo-phenyl)-imidazolidin-2-one]
3100	O=C(C/N=C1/NC(=O)N(c2ccc3[nH]cnc3c2)C1c1ccc(Cl)c(F)c1)N1CCCCC1 (stereo not shown) [Compound 302, 1-(1H-Benzoimidazol-5-yl)-5-(4-chloro-3-fluoro-phenyl)-4-2-oxo-2-piperidin-1-yl-ethylimino-imidazolidin-2-one]
4	O=C1N/C(=N/CCCc2ccccc2)C(c2cc(Br)cc(Br)c2)N1c1ccc2[nH]cnc2c1 (stereo not shown) [Compound 303, 1-(1H-Benzoimidazol-5-yl)-5-(3,5-dibromo-phenyl)-4-3-phenyl-propylimino-imidazolidin-2-one]
4	O=C1N/C(=N/Cc2ccc3[nH]ccc3c2)C(c2cc(Br)cc(Br)c2)N1c1ccc2nc[nH]c2c1 (stereo not shown) [Compound 305, 1-(3H-Benzoimidazol-5-yl)-5-(3,5-dibromo-phenyl)-4-1H-indol-5-ylmethylimino-imidazolidin-2-one]
2200	CN1CCCN(C(=O)C/N=C2/NC(=O)N(c3ccc4[nH]cnc4c3)C2c2ccc3c(c2)OCCO3)CC1 (stereo not shown) [Compound 306, 1-(1H-Benzoimidazol-5-yl)-5-(2,3-dihydro-benzo1,4dioxin-6-yl)-4-2-(4-methyl-1,4diazepan-1-yl)-2-oxo-ethylimino-imidazolidin-2-one]
2200	CN1CCCN(C(=O)C/N=C2/NC(=O)N(c3ccc4[nH]cnc4c3)C2c2ccc3[nH]ccc3c2)CC1 (stereo not shown) [Compound 307, 1-(1H-Benzoimidazol-5-yl)-5-(1H-indol-5-yl)-4-2-(4-methyl-1,4diazepan-1-yl)-2-oxo-ethylimino-imidazolidin-2-one]
1300	COCC/N=C1/NC(=O)N(c2ccc3[nH]cnc3c2)C1c1ccc(C)cc1 (stereo not shown) [Compound 308, 1-(1H-Benzoimidazol-5-yl)-4-2-methoxy-ethylimino-5-p-tolyl-imidazolidin-2-one]
400	O=C1N/C(=N/C2CC2)C(c2ccc(Br)cc2)N1c1ccc2nc[nH]c2c1 (stereo not shown) [Compound 310, 1-(3H-Benzoimidazol-5-yl)-5-(4-bromo-phenyl)-4-cyclopropylimino-imidazolidin-2-one]
5800	S=C1N/C(=N\C2CCCc3ccccc32)C(c2cc(Br)cs2)N1c1ccc2nc[nH]c2c1 (stereo not shown) [Compound 311, 1-(3H-Benzoimidazol-5-yl)-5-(4-bromo-thiophen-2-yl)-4-1,2,3,4-tetrahydro-naphthalen-1-ylimino-imidazolidine-2-thione]
